Seven compounds from US20040185509A1, “Eosinophil prostaglandin d2 receptor assays” (priority 2001, published 2004) can be followed below.

The subject of assay [1] is purified human eosinophils. As to the kind of experiment: Eosinophil morphology change by light microscopy. The assay is classed as cell-based. The protocol:
Purified eosinophils were incubated in RPMI 1640 media supplemented with 0.5% fetal bovine serum in the presence of the compound to be tested for 15 minutes in a 24-well dish. Light microscopy was performed with an inverted Axiovert 25 (Zeiss) and images were obtained with a 35 mm SLR camera (ARIA CONTAX, Kyocera corporation) using Kodak Elite Chrome 160T film.
Vehicle-treated eosinophils were spherical and only weakly adhered to the culture dish. […] This effect was seen on the majority of eosinophils from all donors analysed (n=20).

Assay [2] relates to purified human eosinophils. As to the kind of experiment: In vitro eosinophil apoptosis assay (Annexin V/propidium iodide, flow cytometry). The format is cell-based. The note with it: for effect on eosinophil apoptosis / percentage of non-apoptotic eosinophils (result in words): 36 hours in culture, 1 μM, interleukin-5 at 1 ng/ml, FIG. 5. How it is done:
Purified eosinophils were resuspended at 2.0×10^5 cells per ml in RPMI 1640 medium supplemented with 10% (v/v) fetal bovine serum, 2 mM glutamine, and 100 units of penicillin and streptomycin. Compounds to be tested were diluted 1:1000 to their final concentration and the cells were incubated at 37° C. in a CO2 chamber for 36 hours. The extent of apoptosis in the eosinophil population was evaluated using the TACS™ Annexin-V-FITC apoptosis detection kit (R&D systems). Non-apoptotic cells are not stained with either Annexin-V FITC or propidium iodide. Early apoptotic cells are stained with Annexin-V FITC but not propidium iodide (green fluorescence). Late apoptotic cells are stained with both Annexin-V FITC and propidium iodide (dual green and red fluorescence). Necrotic cells are only stained with propidium iodide (red fluoresecence). Labeled eosinophils were analyzed in a FACS Calibur system from Becton Dickinson.
The ability of PGD2 to modulate apoptosis in eosinophils was measured by quantifying the capacity of Annexin V to bind to phosphatidylserine on the outer membrane of apoptotic cells. (Koopman, et al., Blood 84:1415, 1994.) Necrotic cell death was determined by propidium iodide uptake. (Darzynkiewicz, et al., Cytometry 13:795, 1992.) Annexin V-FITC and propidium iodide staining of eosinophils was evaluated by FACS analysis.
On the technique in general: In flow cytometry, cells or beads pass a laser one at a time.

The subject of assay [3] is purified human eosinophils. Briefly: Eosinophil chemokinesis (chemotactic chamber without chemoattractant in the lower chamber). The assay is classed as cell-based. The note with it: for stimulation of eosinophil chemokinesis (result in words): FIG. 3: BW245C 1 μM, DK-PGD2 100 nM, PAF 100 nM, IL-5 1 ng/ml, PGE2, fluprostenol and latanoprost 1 μM; for increase in eosinophil chemokinesis: data not shown. How it is done:
Purified eosinophils were resuspended at 3.0×10^6 cells per ml in RPMI 1640 medium supplemented with 0.5% (v/v) fetal bovine serum. Compounds to be tested were added from 1000× concentrated stock solutions to 100 μl of cells in a 1.5 ml centrifuge tube and incubated at room temperature for 5 minutes. 100 μl of treated cells were then added to the top half of a chemotactic chamber (6.5 mm Transwell, 3.0 μm polycarbonate membrane from Costar) and 600 μl of RPMI, supplemented with 0.5% (v/v) fetal bovine serum, was added to the bottom chamber. After a 2 hour incubation at 37° C. in a CO2 chamber, the top chamber was discarded and the number of cells that had migrated to the lower chamber was evaluated by counting the cells using an hematocytometer. For each condition tested, the number of migrating eosinophils in two chemotactic chambers was averaged.
Chemokinesis was measured by incubating eosinophils with PGD2 for 5 minutes prior to their loading in the upper chamber of a chemotactic unit lacking a chemoattractant in the lower chamber. PGD2 at a concentration of […] increased eosinophil chemokinesis by 6-fold compared to cells treated with vehicle only (FIG. 3). PGD2 at concentrations of 10 nM and 1 μM increased eosinophil chemokinesis by a factor of 5 and 9-fold respectively (data not shown).

The test system of assay [4] is purified human eosinophils. As to the kind of experiment: Eosinophil degranulation (release of ECP into the media, radioimmunoassay). The note with it: for release of ECP from eosinophils (result in words): FIG. 4: DK-PGD2 100 nM, BW245C 1 μM, FP and EP agonists 1 μM. The format is cell-based. How it is done:
Purified eosinophils were resuspended at 3.0×10^6 cells per ml in RPMI 1640 medium supplemented with 0.5% (v/v) fetal bovine serum. Compounds to be tested were diluted 1:1000 to their final concentration in 300 μl of cells in a 1.5 ml centrifuge tube. The cells were immediately transferred to a 24-well plate. After an 1 hour incubation at 37° C. in a CO2 chamber, the cells were removed by centrifugation (4° C., 300× g, 10 minutes). Eosinophil cationic protein (ECP) in the supernatant was quantified by a double antibody radioimmunoassay (Pharmacia) following the manufacturer's protocol.
Degranulation of eosinophils was assayed by challenging freshly isolated eosinophils with PGD2 and measuring release of the eosinophil cationic protein (ECP) into the media using an ECP-specific radioimmunoassay.

The subject of another assay is eosinophils. As to the kind of experiment: Eosinophil chemotaxis (agent in the bottom chamber of the chemotactic unit). The assay is classed as cell-based, human. The note with it: data not shown. The protocol:
Chemotaxis was measured by adding PGD2 to the bottom chamber of a chemotactic unit containing eosinophils in the top chamber.

The mark [5] stands for this setting: 15 minutes, FIG. 2: DK-PGD2 10 nM, PAF 100 nM, IL-5 1 ng/ml.

Entries after “also recorded” stand apart in the source; their conditions may differ.

Turning to `O=C(O)CCC/C=C\C[C@@H]1[C@@H](/C=C/[C@@H](O)COc2cccc(C(F)(F)F)c2)[C@H](O)C[C@@H]1O` (racemic) [fluprostenol], the “change in eosinophil morphology” value in assay [1] (μM doses, data not shown) is “did not cause, even at μM doses, any alterations of eosinophil morphology”. The “effect on eosinophil apoptosis / percentage of non-apoptotic eosinophils (result in words)” value in assay [2] is “not significant”. Also, in assay [3], the “stimulation of eosinophil chemokinesis (result in words)” value (from here on “stimulation of eosinophil chemokinesis”) is listed as “failed to modulate eosinophil migration”.
Turning to `O=C(O)CCCCCCC1C(=O)NC(=O)N1CCC(O)C1CCCCC1` (stereo not drawn) [BW245C], the “release of ECP from eosinophils (result in words)” value in assay [4] (1 hour) is “not BW245C, significantly increased the release of ECP”. In addition, the “change in eosinophil morphology” value in assay [1] (concentrations as high as 1 μM, panel 2c) is “did not affect eosinophil shape”. In assay [2] (BW245C 1 μM, 36 hours, over vehicle treated population, 9 donors), the “increase in the percentage of non-apoptotic eosinophil” value was 17%. Further, in assay [3], the “stimulation of eosinophil chemokinesis” value was “not BW245C was effective in stimulating eosinophil chemokinesis”.
Take `CCCCCC(=O)CCC1C(=O)CC(O)C1C/C=C\CCCC(=O)O` (stereo not drawn) [DK-PGD2, 13,14-dihydro-15-keto-PGD2]: in assay [4] (1 hour), the “release of ECP from eosinophils (result in words)” value was “significantly increased the release of ECP”. For the same compound, the “change in eosinophil morphology” value in assay [1] (setting [5]) was “induced a morphological change identical to that observed with PGD2”. Besides, in assay [2], the “effect on eosinophil apoptosis / percentage of non-apoptotic eosinophils (result in words)” value is “no significant effect”. The “stimulation of eosinophil chemokinesis” value in assay [3] was “effective in stimulating eosinophil chemokinesis”.
Consider `CCCCC[C@H](O)/C=C/[C@H]1C(=O)C[C@H](O)[C@@H]1C/C=C\CCCC(=O)O` [PGD2, Prostanglandin D2], for which, in assay [4] (10 to 100 nM, 1 hour, FIG. 4), the “release of ECP from eosinophils into the media” value is recorded as “significantly increased the release of ECP”. Besides, in assay [4] (after PGD2 challenge, data not shown), the “release of the granular protein EDN from eosinophils” value is listed as “observed the release from eosinophils of another granular protein, EDN”. In assay [4] (average over donors), the “extent of ECP release relative to PAF” value is “about half that seen with PAF”. Further, the “morphology change after a second PGD2 challenge” value in assay [1] (PGD2-treated eosinophils, data not shown) is given as “resistant to morphology changes after a second PGD2 challenge”. Moreover, the “change in eosinophil morphology” value in assay [1] (PGD2 <10 nM, within minutes, n=20 donors) is recorded as “induced dramatic changes in cell morphology”. Moreover, the “reversion of treated eosinophils to spherical shape” value in assay [1] (after PGD2 treatment) is reported as “reverted to a spherical shape within six hours”. For the same compound, the “effect on eosinophil apoptosis / percentage of non-apoptotic eosinophils (result in words)” value in assay [2] was “weak inhibitor of apoptotic cell death”. The “increase in eosinophil chemokinesis” value was found to be 5 fold in assay [3] (10 nM) and 9 fold in assay [3] (1 μM). Further, the “increase in eosinophil chemokinesis compared to cells treated with vehicle only” value in assay [3] (100 mM (so in the source), 5 minutes pre-treatment, 2 hours migration, FIG. 3) amounted to 6 fold. In addition, the “stimulation of eosinophil chemokinesis” value in assay [3] is listed as “increased cell motility in the absence of a chemical gradient”. For the same compound, the “chemotactic (chemoattractant) effect on eosinophils” value in the assay with eosinophils (PGD2 added to the bottom chamber) is listed as “not observed to exert a chemotatic effect; also recorded: did not attract eosinophils to the lower chamber”. Also, the “chemotactic response of pre-incubated eosinophils to PAF or eotaxin” value with eosinophils (pre-incubation up to 1 μM for 5 minutes to 18 hours) is recorded as “did not have an altered chemotactic response”.
For `CCCCC[C@H](O)/C=C/[C@H]1[C@H](O)CC(=O)[C@@H]1C/C=C\CCCC(=O)O` [PGE2], the “change in eosinophil morphology” value in assay [1] (μM doses, data not shown) is given as “did not cause, even at μM doses, any alterations of eosinophil morphology”. In addition, the “effect on eosinophil apoptosis / percentage of non-apoptotic eosinophils (result in words)” value in assay [2] is “increased the percentage of non-apoptotic eosinophils”. The “stimulation of eosinophil chemokinesis” value in assay [3] is given as “failed to modulate eosinophil migration”.
Regarding `CC(C)OC(=O)CCC/C=C\C[C@@H]1[C@@H](CC[C@@H](O)CCc2ccccc2)[C@H](O)C[C@@H]1O` [latanoprost], the “change in eosinophil morphology” value in assay [1] (μM doses, data not shown) was “did not cause, even at μM doses, any alterations of eosinophil morphology”. In assay [2], the “effect on eosinophil apoptosis / percentage of non-apoptotic eosinophils (result in words)” value is “not significant”. Further, the “stimulation of eosinophil chemokinesis” value in assay [3] is listed as “failed to modulate eosinophil migration”.
Take “Il-5: Recombinant human interleukin-5 produced using a baculovirus system and purified by FPLC”: the “change in eosinophil morphology” value in assay [1] (setting [5]) is “lead to a rapid change in eosinophil morphology”. Further, in assay [2], the “effect on eosinophil apoptosis / percentage of non-apoptotic eosinophils (result in words)” value was “increased the percentage of non-apoptotic eosinophils”. In addition, in assay [3], the “stimulation of eosinophil chemokinesis” value was “able to stimulate eosinophil chemokinesis”.
